Measured values: paper PMC10447463, “Data-mining unveils structure–property–activity correlation of viral infectivity enhancing self-assembling peptides” (Nature Communications, 2023)
Like-named read-outs stand apart in the source and are kept apart here.

What was measured:
[1] = test system: HIV-1 infection of TZM-bl cells; experiment: HIV-1 infectivity enhancement assay, β-galactosidase luminescence; assay type: cell-based; settings: for Rel-EFC / Log10 Infection Rel EFC: 1.3 µM peptide; for Rel-EFC: infection relative to EF-C (QCKIKQIINMWQ = 1); for Log10 Infection Rel EFC: log10 of infection relative to EF-C; for Log Infectivity: Log10 infection relative to EF-C, TZM-bl cells, asymmetric std dev errors; for Log10 Infection Rel EF-C: HIV-1 infection of TZM-bl cells; for Log10 of Rel to EFC (Feb2021): Log10 of infection relative to EF-C, all peptides of FigS16; for Abs. Inf.: absolute infection signal, HIV-1 on TZM-bl cells, β-galactosidase luminescence; for Log10 Inf. rel. to EF-C: log10 of HIV-1 infection of TZM-bl cells relative to EF-C (EF-C = 0)
[2] = assay type: physicochemical; design: key to Fibril / Fibril Formation / TEM 2cat / Fibril: 1 = fibrils present; 0 non-fibrillar structures; settings: for Fibril / Fibril Formation: 1 mg/mL, uranyl acetate stain, qualitative
[3] = Turbidity, derived count rate of scattered light; assay type: physicochemical; settings: for Count Rate / kcps: derived count rate of scattered light at 633 nm, 173°, from zeta-potential measurement, 0.1 mg/mL in 1 mM KCl after 1 d at 1 mg/mL in PBS, turbidity / microscopic aggregation, mean of triplicate
Outline: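 One-day room-temperature aggregation at 1 mg/mL in PBS (pH 7.4) preceded measurement; samples then went into 1 mM KCl. Triplicates per sample, two independent experiments averaged.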

[4] = Fig. S7 panel A (plotted against β-sheet content)
[5] = Fig. S7 panel B (plotted against CR), rounded to two decimals
[6] = Log10 of infection rate relative to EF-C, Figure 3A source data
[7] = infection rate relative to EF-C, log10, data of Figure 2D
[8] = infection rate relative to EF-C, log10, source data of Figure 2C
[9] = TEM, 1 = fibrils present, 0 = non-fibrillar
[10] = TEM, 1 = fibrils present, 0 = non-fibrillar structures
[11] = category: fibrils present or non-fibrillar
[12] = Log10 of derived count rate of scattered light (turbidity)
[13] = turbidity, Log10 of derived count rate of scattered light, Figure 3A source data
[14] = turbidity, log10 of derived count rate of scattered light
[15] = FigS12 panel A, fibril category by TEM

CKFKFQFNMWQ
Rel-EFC [1]: 1,16 | Log10 Infection Rel EFC [1]: 0,06 | Log Infectivity [1, 4]: 0.06446 | Log Infectivity [1, 5]: 0.06 | Log10 Infection Rel EF-C [1, 6]: 0.06 | Log10 Infection Rel EF-C [1, 7]: 0.06446 | Log10 Infection Rel EF-C [1, 8]: 0.06446 | Log10 of Rel to EFC (Feb2021) [1]: 0.06 | Abs. Inf. [1]: 26320 | Log10 Inf. rel. to EF-C [1]: 0.06446 | TEM 2cat ([2]; Fig S10 panel D): 1 | Fibril ([2]; Fig S10 panel E): 1 | Fibril / Fibril Formation ([2]; TEM): 1 | Fibril [2, 9]: 1 | Fibril [2, 10]: 1 | TEM 2cat [2, 11]: 1 | Log10 Count Rate [3, 12]: 2.154 | Count Rate / kcps [3]: 143 kcps | Log10 Count Rate [3, 13]: 2.154 | Log10 Count Rate [3, 14]: 2.154

QCKFKFQF
Rel-EFC [1]: 0,77 | Log10 Infection Rel EFC [1]: -0,12 | Log Infectivity [1, 4]: -0.1152 | Log10 Infection Rel EF-C [1, 6]: -0.12 | Log10 Infection Rel EF-C [1, 7]: -0.1152 | Log10 Infection Rel EF-C [1, 8]: -0.1152 | Log10 of Rel to EFC (Feb2021) [1]: -0.12 | Abs. Inf. [1]: 20303.33333 | Log10 Inf. rel. to EF-C [1]: -0.1152 | TEM 2cat ([2]; Fig S10 panel D): 1 | Fibril / Fibril Formation ([2]; TEM): 1 | Fibril [2, 9]: 1 | Fibril [2, 10]: 1 | TEM 2cat [2, 11]: 1 | Log10 Count Rate [3, 12]: 3.426 | Count Rate / kcps [3]: 2669 kcps | Log10 Count Rate [3, 13]: 3.426 | Log10 Count Rate [3, 14]: 3.426

CHLHLQL
Rel-EFC [1]: 0,1 | Log10 Infection Rel EFC [1]: -1,01 | Log Infectivity [1, 4]: -1.008 | Log Infectivity [1, 5]: -1.01 | Log10 Infection Rel EF-C [1, 6]: -1.01 | Log10 Infection Rel EF-C [1, 7]: -1.008 | Log10 Infection Rel EF-C [1, 8]: -1.008 | Abs. Inf. [1]: 2934 | Log10 Inf. rel. to EF-C [1]: -1.008 | Abs. Infection at 0.26 µM ([1]; peptide 0.26 µM, mean of n = 3, Figure 4A): 572.2 | Infect 1 0.26 µM ([1]; peptide 0.26 µM, replicate 1, absolute infection signal, Figure 4A): 545.6 | Infect 2 0.26 µM ([1]; peptide 0.26 µM, replicate 2, absolute infection signal, Figure 4A): 488.9 | Infect 3 0.26 µM ([1]; peptide 0.26 µM, replicate 3, absolute infection signal, Figure 4A): 682.2 | Abs. Infection at 1.3 µM ([1]; peptide 1.3 µM, mean of n = 3, Figure 4A): 2934 | Infect 1 .3 µM ([1]; peptide 1.3 µM, replicate 1, absolute infection signal, Figure 4A): 3586 | Infect 2 1.3µM ([1]; peptide 1.3 µM, replicate 2, absolute infection signal, Figure 4A): 2346 | Infect 3 1.3 µM ([1]; peptide 1.3 µM, replicate 3, absolute infection signal, Figure 4A): 2872 | TEM 2cat ([2]; Fig S10 panel D): 0 | Fibril ([2]; Fig S10 panel E): 0 | TEM 2cat [2, 15]: 0 | Fibril ([2]; FigS12 panel B, TEM): 0 | Fibril / Fibril Formation ([2]; TEM): 0 | Fibril [2, 9]: 0 | Fibril [2, 10]: 0 | Log10 Count Rate [3, 12]: 3.062 | Count Rate / kcps [3]: 1155 kcps | Log10 Count Rate ([3]; logarithm of count rate in kcps): 3.062 | Log10 Count Rate [3, 13]: 3.062 | Log10 Count Rate [3, 14]: 3.062

KVKGVGK
Rel-EFC [1]: 0,03 | Log10 Infection Rel EFC [1]: -1,59 | Log Infectivity [1, 4]: -1.587 | Log10 Infection Rel EF-C [1, 6]: -1.59 | Log10 Infection Rel EF-C [1, 7]: -1.587 | Log10 Infection Rel EF-C [1, 8]: -1.587 | Abs. Inf. [1]: 286.7 | Log10 Inf. rel. to EF-C [1]: -1.587 | TEM 2cat ([2]; Fig S10 panel D): 0 | TEM 2cat [2, 15]: 0 | Fibril ([2]; FigS12 panel B, TEM): 0 | Fibril / Fibril Formation ([2]; TEM): 0 | Fibril [2, 9]: 0 | Fibril [2, 10]: 0 | Log10 Count Rate [3, 12]: 1.709 | Count Rate / kcps [3]: 51 kcps | Log10 Count Rate [3, 13]: 1.709 | Log10 Count Rate [3, 14]: 1.709

HLHLPLL
Rel-EFC [1]: 0,01 | Log10 Infection Rel EFC [1]: -2 | Log Infectivity [1, 4]: -1.9991 | Log Infectivity [1, 5]: -2 | Log10 Infection Rel EF-C [1, 6]: -2 | Log10 Infection Rel EF-C [1, 7]: -1.9991 | Log10 Infection Rel EF-C [1, 8]: -1.9991 | Abs. Inf. [1]: 133.3 | Log10 Inf. rel. to EF-C [1]: -1.9991 | TEM 2cat ([2]; Fig S10 panel D): 0 | Fibril ([2]; Fig S10 panel E): 0 | TEM 2cat [2, 15]: 0 | Fibril ([2]; FigS12 panel B, TEM): 0 | Fibril / Fibril Formation ([2]; TEM): 0 | Fibril [2, 9]: 0 | Fibril [2, 10]: 0 | Log10 Count Rate [3, 12]: 2.301 | Count Rate / kcps [3]: 200 kcps | Log10 Count Rate [3, 13]: 2.301 | Log10 Count Rate [3, 14]: 2.301

NMWQKFKFQF
Rel-EFC [1]: 0,27 | Log10 Infection Rel EFC [1]: -0,57 | Log Infectivity [1, 4]: -0.5672 | Log10 Infection Rel EF-C [1, 6]: -0.57 | Log10 Infection Rel EF-C [1, 7]: -0.5672 | Log10 Infection Rel EF-C [1, 8]: -0.5672 | Log10 of Rel to EFC (Feb2021) [1]: -0.57 | Abs. Inf. [1]: 7323 | Log10 Inf. rel. to EF-C [1]: -0.5672 | TEM 2cat ([2]; Fig S10 panel D): 1 | Fibril / Fibril Formation ([2]; TEM): 1 | Fibril [2, 9]: 1 | Fibril [2, 10]: 1 | TEM 2cat [2, 11]: 1 | Log10 Count Rate [3, 12]: 4.148 | Count Rate / kcps [3]: 14045 kcps | Log10 Count Rate [3, 13]: 4.148 | Log10 Count Rate [3, 14]: 4.148

RLRLTLC
Rel-EFC [1]: 0,05 | Log10 Infection Rel EFC [1]: -1,29 | Log Infectivity [1, 4]: -1.288 | Log Infectivity [1, 5]: -1.29 | Log10 Infection Rel EF-C [1, 6]: -1.29 | Log10 Infection Rel EF-C [1, 7]: -1.288 | Log10 Infection Rel EF-C [1, 8]: -1.288 | Abs. Inf. [1]: 1334 | Log10 Inf. rel. to EF-C [1]: -1.288 | TEM 2cat ([2]; Fig S10 panel D): 1 | Fibril ([2]; Fig S10 panel E): 1 | TEM 2cat [2, 15]: 1 | Fibril ([2]; FigS12 panel B, TEM): 1 | Fibril / Fibril Formation ([2]; TEM): 1 | Fibril [2, 9]: 1 | Fibril [2, 10]: 1 | Log10 Count Rate [3, 12]: 2.0991 | Count Rate / kcps [3]: 126 kcps | Log10 Count Rate [3, 13]: 2.0991 | Log10 Count Rate [3, 14]: 2.0991
